Read-outs that look alike come from different tables or passages of the source.
Assays:
Assay in all cases: 72-hour CellTiter-Glo 2.0 growth inhibition screen (single agent, 9x9 combination dose matrix);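 on Best CI Level: inhibition effect level at which the best CI was calculated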
Format in all cases: cell-based
[1] = system: AsPC-1; conditions: for Response Area / EC50 / IC50 / Emax / GI50: AsPC-1, Pancreas; for EC50 / IC50 / Emax / GI50: Homo sapiens; for EC50: ASPC1, 72 h; for IC50 / Emax / GI50: ASPC1;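 on Best CI Level: inhibition effect level at which the best CI was calculated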
[2] = system: Gp2D; conditions: for EC50: GP2d; for EC50 / IC50 / Response Area / Emax / GI50: Colorectal; for IC50 / Response Area / Emax / GI50: Gp2D;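 on Best CI Level: inhibition effect level at which the best CI was calculated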
[3] = system: LS-513; conditions: for EC50 / IC50 / Emax / GI50: Homo sapiens; for EC50: LS-513, 72 h; for EC50 / IC50 / Emax / GI50 / Response Area: LS-513, Colorectal;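 on Best CI Level: inhibition effect level at which the best CI was calculated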
[4] = system: SW48 KRAS (G12D/+); conditions: for EC50 / IC50 / Emax / GI50: Homo sapiens; for EC50: SW48, 72 h, read-out: EC50; for EC50 / IC50 / Emax / GI50 / Response Area: Colorectal; for Best CI Level: unit assumed;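 on Best CI Level: inhibition effect level at which the best CI was calculated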
[5] = AsPC-1 (KRAS G12D), enhancer + MEI-522 (Voruciclib), 72 h;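 on Best CI Level: inhibition effect level at which the best CI was calculated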
[6] = Additional Single Agent Responses (inhibition, % I), 72 h
[7] = growth inhibition (GI), AUC, single agent, 72 h
[8] = growth inhibition (GI) curve, single agent, 72 h
[9] = Additional Single Agent Responses, 72 h, read-out: Max Response (% I)
[10] = growth inhibition (GI), single agent, 72 h, read-out: Max Response (% GI)
[11] = enhancer combined with MEI-522 (Voruciclib), AsPC-1 (Pancreas), 72 hours, inhibition data
[12] = 72 h, Additional Single Agent Responses (inhibition, % I)
[13] = 72 h, growth inhibition (GI) curve, single agent
[14] = Gp2D (KRAS G12D), enhancer + MEI-522 (Voruciclib), 72 h;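 on Best CI Level: inhibition effect level at which the best CI was calculated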
[15] = enhancer combined with MEI-522 (Voruciclib), Gp2D (Colorectal), 72 hours, inhibition data
[16] = LS-513 (KRAS G12D), enhancer + MEI-522 (Voruciclib), 72 h;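 on Best CI Level: inhibition effect level at which the best CI was calculated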
[17] = enhancer combined with MEI-522 (Voruciclib), LS-513 (Colorectal), 72 hours, inhibition data
[18] = SW48 KRAS (G12D/+), Additional Single Agent Responses (inhibition, % I), 72 h
[19] = SW48 KRAS (G12D/+), growth inhibition (GI) curve, single agent, 72 h
[20] = SW48 KRAS (G12D/+), Additional Single Agent Responses, 72 h, read-out: Max Response (% I)
[21] = SW48 KRAS (G12D/+), growth inhibition (GI), single agent, 72 h, read-out: Max Response (% GI)
[22] = SW48 KRAS (G12D/+), growth inhibition (GI), AUC, single agent, 72 h
[23] = SW48 KRAS (G12D/+), enhancer + MEI-522 (Voruciclib), 72 h
[24] = enhancer combined with MEI-522 (Voruciclib), SW48 KRAS (G12D/+) (Colorectal), 72 hours, inhibition data

## CC[C@@H]1C(=O)N(C)c2cnc(Nc3ccc(C(=O)N[C@H]4CC[C@H](N5CCN(CC6CC6)CC5)CC4)cc3OC)nc2N1C(C)C [Volasertib]
[1]; [5]
  Best CI: 0.51
  Bliss Volume: −1.02
  HSA volume: 0.04
  Loewe Volume: −0.85
  Synergy Score: 1.87
[1]; [6]
  Response Area: 3.11
  EC50: 12.2 nM
  IC50: 23.1 nM
[1]; [7]
  Response Area: 4.36
[1]; [8]
  EC50: 12.2 nM
  GI50: 13.7 nM
[1]; [9]
  Emax: 69%
[1]; [10]
  Emax: 96%
[1]; [11]
  Best CI: 0.89
  Best CI Level: 20
  Bliss Volume: −2.24
  HSA volume: −0.18
  Loewe Volume: −0.80
  Synergy Score: 0.83
[2]; [12]
  EC50: 2.1 nM
[2]; [13]
  EC50: 2.5 nM
[2]; [14]
  Best CI: 0.59
  Bliss Volume: 9.40
  HSA volume: 0.44
  Loewe Volume: 1.73
  Synergy Score: 15.26
[2]; [6]
  IC50: 2.4 nM
  Response Area: 4.53
[2]; [9]
  Emax: 91%
[2]; [8]
  GI50: 2.2 nM
[2]; [7]
  Response Area: 6.83
[2]; [10]
  Emax: 161%
[2]; [15]
  Best CI: 0.16
  Best CI Level: 80
  Bliss Volume: −1.26
  HSA volume: −0.27
  Loewe Volume: −0.15
  Synergy Score: 2.39
[3]; [6]
  EC50: 18.6 nM
  IC50: 23.9 nM
  Response Area: 3.44
[3]; [8]
  EC50: 18.5 nM
  GI50: 20 nM
[3]; [9]
  Emax: 74%
[3]; [10]
  Emax: 91%
[3]; [16]
  Best CI: 0.60
  Bliss Volume: 3.16
  HSA volume: 1.53
  Loewe Volume: 1.21
  Synergy Score: 5.33
[3]; [7]
  Response Area: 4.22
[3]; [17]
  Best CI: 0.62
  Best CI Level: 80
  Bliss Volume: −1.28
  HSA volume: 0.04
  Loewe Volume: 0.06
  Synergy Score: 1.44
[4]; [18]
  EC50: 4.1 nM
  IC50: 4.8 nM
  Response Area: 3.32
[4]; [19]
  EC50: 4.2 nM
  GI50: 4.3 nM
[4]; [20]
  Emax: 86%
[4]; [21]
  Emax: 148%
[4]; [22]
  Response Area: 5.01
[4]; [23]
  Best CI: 0.06
  Bliss Volume: 8.36
  HSA volume: 1.07
  Loewe Volume: 3.66
  Synergy Score: 13.34
[4]; [24]
  Best CI: 0.08
  Bliss Volume: 0.41
  HSA volume: 0.61
  Loewe Volume: 2.08
  Synergy Score: 4.06
  Best CI Level: 80%

## CN1CCN(c2ccc(OC(F)(F)F)c(Nc3ncc4c(n3)-c3c(c(C(N)=O)nn3CCO)CC4)c2)CC1 [Onvansertib]
[1]; [5]
  Best CI: 0.84
  Bliss Volume: −1.25
  HSA volume: −1.39
  Loewe Volume: −0.75
  Synergy Score: 1.41
[1]; [6]
  Response Area: 2.50
  EC50: 94.9 nM
  IC50: 332 nM
[1]; [7]
  Response Area: 3.48
[1]; [8]
  EC50: 82.3 nM
  GI50: 109 nM
[1]; [9]
  Emax: 60%
[1]; [10]
  Emax: 84%
[1]; [11]
  Best CI: 1.13
  Best CI Level: 20
  Bliss Volume: −1.91
  HSA volume: −0.98
  Loewe Volume: −0.67
  Synergy Score: 0.67
[2]; [12]
  EC50: 23.8 nM
[2]; [13]
  EC50: 33.9 nM
[2]; [14]
  Best CI: 0.96
  Bliss Volume: 7.51
  HSA volume: −1.36
  Loewe Volume: −1.41
  Synergy Score: 3.16
[2]; [6]
  IC50: 25.5 nM
  Response Area: 4.29
[2]; [9]
  Emax: 93%
[2]; [8]
  GI50: 22.4 nM
[2]; [7]
  Response Area: 7.46
[2]; [10]
  Emax: 170%
[2]; [15]
  Best CI: 0.77
  Best CI Level: 20
  Bliss Volume: 0.17
  HSA volume: 0.25
  Loewe Volume: 0.05
  Synergy Score: 0.56
[3]; [6]
  EC50: 49.4 nM
  IC50: 61.6 nM
  Response Area: 3.29
[3]; [8]
  EC50: 49.4 nM
  GI50: 51.7 nM
[3]; [9]
  Emax: 79%
[3]; [10]
  Emax: 97%
[3]; [16]
  Best CI: 0.96
  Bliss Volume: 0.53
  HSA volume: −0.64
  Loewe Volume: −1.49
  Synergy Score: 2.51
[3]; [7]
  Response Area: 4.03
[3]; [17]
  Best CI: 0.90
  Best CI Level: 20
  Bliss Volume: −2.22
  HSA volume: −0.87
  Loewe Volume: −1.32
  Synergy Score: 0.70
[4]; [18]
  EC50: 14 nM
  IC50: 17.8 nM
  Response Area: 3.73
[4]; [19]
  EC50: 15.7 nM
  GI50: 13.9 nM
[4]; [20]
  Emax: 92%
[4]; [21]
  Emax: 168%
[4]; [22]
  Response Area: 5.57
[4]; [23]
  Best CI: 0.39
  Bliss Volume: 5.34
  HSA volume: −1.32
  Loewe Volume: 1.06
  Synergy Score: 8.15
[4]; [24]
  Best CI: 0.51
  Bliss Volume: −0.39
  HSA volume: −0.28
  Loewe Volume: 0.65
  Synergy Score: 2.12
  Best CI Level: 20%
